# Results published in patent publication US9750727B2 (priority 2010, dated 2017).
# Tested on: drug-resistant clinical isolates of M. tuberculosis
# Type: cell-based
compound,measurement,value
NC(=S)NN=Cc1ccncc1.[O-][Cl+3]([O-])([O-])O [new treatment],MIC for 88.8% of cultures,3.125 to 6.25 µg/mL
